“Also recorded” adds a separate entry of the source.
Key:
NCI-H929 cells [1] = test: Cell cycle analysis by flow cytometry; format: cell-based, human; conditions: for G0/G1 arrest / accumulation / sub-G1 population: 0.01 μM each, 3 days
Procedure: For cell cycle analysis, cells were exposed to 10^−7M 1,25(OH)2D3, 10^−7M paricalcitol or vehicle control for either 3 or 4 days. Total cells, both in suspension and adherent, were collected, washed, suspended in cold PBS. Then cells were fixed in 75% chilled methanol and stained with propidium iodine. Cell cycle status was analyzed on a Becton Dickinson Flow Cytometer.
HCI-H929 cells were cultured with either paricalcitol (10^−7M) or 1,25(OH)2D3 (10^−7M) for 72 hrs, harvested and stained with propidium iodine (PI). Control cells were treated with vehicle alone.

NCI-H929 cells [2] = test: TUNEL assay of apoptosis; format: cell-based, human; conditions: for apoptotic cells by TUNEL assay: 0.01 μM each, 3 days
Procedure: In FIG. […] Results represent the mean±SD of three independent experiments. A TUNEL assay was performed for immunohistochemical detection and quantification of programmed cell death at the single cell level, based on labeling of DNA strand breaks using the In Situ Cell Death Detection, POD (Roche, Indianapolis, Ind.). Early apoptosis was also detected by measuring annexin V protein in the cell membrane using Annexin V-FITC Kit (CLONTECH, Palo Alto, Calif.) followed by flow cytometric analysis.

[3] = tested on: HL-60 myeloid leukemia cells; test: MTT assay; format: cell-based, human; conditions: 4 days exposure
NB-4 cells [4] = test: CD14 expression by flow cytometry; format: cell-based, human; conditions: paricalcitol 0.1 μM, arsenic trioxide 0.6 μM, 3 days
HL-60 cells = test: NBT reduction (monocytic differentiation); format: cell-based, human; conditions: paricalcitol 0.01 μM, arsenic trioxide 0.8 μM, 3 days
NB-4 cells [5] = test: Cell cycle analysis by flow cytometry (sub-G1); format: cell-based, human; conditions: paricalcitol 0.1 μM and/or arsenic trioxide 0.6 μM, 4 days, control 4%
Procedure: Cell cycle analysis was performed as follows: after treatment of 5×10^4 of cells with a selected compound, cells were collected, washed and suspended in cold PBS. Cells were fixed in chilled 75% methanol and stained with propidium iodine. Cell cycle status was analyzed on a Becton Dickinson Flow Cytometer used standart protocols.

wild type U937 cells = test: CD14 expression by flow cytometry; format: cell-based, human; conditions: paricalcitol 0.01 μM, arsenic trioxide 0.4 μM
From the text: To examine the association between the presence of the fusion protein and the effect of the combination treatment, an engineered U937 monocytic leukemia cell line (PR9) that has stable integration of the PML-RARa cDNA under the control of the Zn^2+-inducible murine metallothionein 1 promoter was used. Also used were U937 cells transfected with the MT vector (B41) as a control.

24-hydroxylase [6] = target: T1, 24-hydroxylase (Homo sapiens, UniProt Q07973); test: 24-hydroxylase activity by level of 24.25(OH)2D3 in NB-4 cells; format: cell-based; parameters: endogenous in cells; conditions: paricalcitol 0.1 μM, arsenic trioxide 0.6 μM, 3 days
T1 sequence (Q07973 36-514): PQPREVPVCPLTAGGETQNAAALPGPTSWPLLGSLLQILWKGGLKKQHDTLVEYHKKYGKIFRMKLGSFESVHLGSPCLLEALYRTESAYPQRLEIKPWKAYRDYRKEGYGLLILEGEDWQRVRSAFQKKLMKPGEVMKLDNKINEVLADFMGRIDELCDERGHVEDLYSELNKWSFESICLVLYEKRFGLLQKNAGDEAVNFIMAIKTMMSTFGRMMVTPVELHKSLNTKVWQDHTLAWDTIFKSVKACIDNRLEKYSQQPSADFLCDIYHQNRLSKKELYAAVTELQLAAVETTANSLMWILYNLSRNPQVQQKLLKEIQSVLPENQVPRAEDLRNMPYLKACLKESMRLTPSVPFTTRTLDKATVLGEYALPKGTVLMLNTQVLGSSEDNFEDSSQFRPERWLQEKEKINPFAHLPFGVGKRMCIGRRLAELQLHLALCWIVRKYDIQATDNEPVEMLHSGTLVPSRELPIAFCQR
Procedure: (§1) HL-60 (A) and NB-4 (B) myeloid leukemia cell lines were treated with paricalcitol (0.01 μM for HL-60, 0.1 μM for NB-4) and/or arsenic trioxide (0.8 μM for HL-60, 0.6 μM for NB-4) for 3 days. Control cells were treated with vehicle alone. The levels of 24.25(OH)2D3 were measured by HPLC analysis.
(§2) The possibility that the arsenic trioxide inactivates the mitchondrial enzyme, 24-hydroxylase leading to an activation of the response of the cells to vitamin D was tested. The activity of 24-hydroxylase was examined by measuring its metabolite, 24.25(OH)2D3 by TLC analysis in leukemia cells. HL-60 and NB-4 myeloid leukemia cell lines were treated with paricalcitol (0.01 μM for HL-60, 0.1 μM for NB-4) and/or arsenic trioxide (0.8 μM for HL-60, 0.6 μM for NB-4) for 3 days. Control cells were treated with vehicle alone. Then the levels of 24.25(OH)2D3 were measured by TLC analysis. Paricalcitol alone increased the levels of 24.25(OH)2D3 in HL-60 and NB-4, while arsenic trioxide alone decreased its level compared to control cells (FIG. 11). […] The decrease of the levels of 24-hydroxylase by arsenic trioxide may explain the enhanced activity of paricalcitol by arsenic trioxide in leukemia cells.

24-hydroxylase [7] = target: T1, 24-hydroxylase; test: 24-hydroxylase activity by level of 24.25(OH)2D3 in HL-60 cells; format: cell-based; parameters: endogenous in cells; host or cells: HL-60; conditions: paricalcitol 0.01 μM, arsenic trioxide 0.8 μM, 3 days
Procedure: as §1, §2

Molecule | G0/G1 arrest / accumulation (NCI-H929 cells [1]) | sub-G1 population (NCI-H929 cells [1]) | increase of accumulation in G1/G0 phase (NCI-H929 cells [1]; 10^−7M, 72 hrs) [%] | increase in apoptotic sub-G1 population (NCI-H929 cells [1]; 10^−7M, 72 hrs, diluant control 4% sub-G1) [%] | apoptotic cells by TUNEL assay (NCI-H929 cells [2]) | apoptotic cells (TUNEL) (NCI-H929 cells [2]; 10^−7M, 96 hrs, diluant control 4%) [%] | antiproliferative effect by MTT assay [3] | CD14 expression (NB-4 cells [4]) | monocytic differentiation by NBT reduction (HL-60 cells) | cells in sub-G1 population (NB-4 cells [5]) [%] | CD14 expressing cells (wild type U937 cells) | levels of 24.25(OH)2D3 (24-hydroxylase [6]) | levels of 24.25(OH)2D3 (24-hydroxylase [7])
C[C@H](/C=C/[C@H](C)C(C)(C)O)[C@H]1CC[C@H]2/C(=C/C=C3C[C@@H](O)C[C@H](O)C3)CCC[C@]12C [paricalcitol, 19-nor-1,25, (OH)2D3] | induced G0/G1 arrest | increased | 7 | 21 | increased | 31 | suppressed the cell growth in a dose-dependent manner; also recorded: sensitive | did not induced CD14 expression | increased | 5 | increased CD14 expressing monoicytic cells | increased | increased
arsenic trioxide | induced G0/G1 arrest | increased |  |  | increased |  | suppressed the cell growth in a dose-dependent manner | did not induced CD14 expression | little effect on differentiation | 33 | did not induce CD14 expression | decreased | decreased

Reference: patent publication US20050054620A1, “Paricalcitol as a chemotherapeutic agent” (priority 2003, published 2005)
